{
  "source": "ChEMBL document CHEMBL5550194",
  "about": "“Design and synthesis of phosphoryl-substituted steroidal pyridazines (Pho-STPYRs) as potent estrogen receptor alpha inhibitors: targeted treatment of hormone-dependent breast cancer cells” (RSC Med Chem, 2024)",
  "key": {"Cytochrome P450 7A1 [1]": {"biological_target": "T1, Cytochrome P450 7A1 (Homo sapiens, UniProt P22680)", "T1 sequence (P22680 whole entry)": "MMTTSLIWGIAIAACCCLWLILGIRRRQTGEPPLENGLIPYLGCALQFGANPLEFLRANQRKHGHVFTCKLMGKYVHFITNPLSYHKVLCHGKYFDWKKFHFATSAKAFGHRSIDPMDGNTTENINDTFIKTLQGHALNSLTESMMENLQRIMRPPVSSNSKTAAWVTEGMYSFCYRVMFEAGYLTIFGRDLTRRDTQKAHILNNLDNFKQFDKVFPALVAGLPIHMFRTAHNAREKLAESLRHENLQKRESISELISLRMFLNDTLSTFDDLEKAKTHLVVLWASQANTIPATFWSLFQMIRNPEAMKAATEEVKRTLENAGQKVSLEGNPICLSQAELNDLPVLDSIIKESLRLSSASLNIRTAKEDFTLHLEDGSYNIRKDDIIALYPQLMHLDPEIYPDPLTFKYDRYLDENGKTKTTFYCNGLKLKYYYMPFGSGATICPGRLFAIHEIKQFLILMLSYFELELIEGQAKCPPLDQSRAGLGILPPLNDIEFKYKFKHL", "assay": "Binding affinity to recombinant human CYP7A1 assessed as substrate-type binding by measuring dissociation constant by spectrophotometric titration method", "type": "ADME"}, "MDA-MB-231 [2]": {"system": "MDA-MB-231", "assay": "Antiproliferative activity against human MDA-MB-231 cells assessed as inhibition of cell growth incubated for 72 hrs by MTT assay", "type": "functional, cell-based", "conditions": "MDA-MB-231, 72 h"}, "MCF7 [3]": {"system": "MCF7", "assay": "Antiproliferative activity against human MCF7 cells assessed as inhibition of cell growth incubated for 72 hrs by MTT assay", "type": "functional, cell-based", "conditions": "MCF7, 72 h"}, "Cytochrome P450 7B1 [4]": {"biological_target": "T2, Cytochrome P450 7B1 (Homo sapiens, UniProt O75881)", "T2 sequence (O75881 whole entry)": "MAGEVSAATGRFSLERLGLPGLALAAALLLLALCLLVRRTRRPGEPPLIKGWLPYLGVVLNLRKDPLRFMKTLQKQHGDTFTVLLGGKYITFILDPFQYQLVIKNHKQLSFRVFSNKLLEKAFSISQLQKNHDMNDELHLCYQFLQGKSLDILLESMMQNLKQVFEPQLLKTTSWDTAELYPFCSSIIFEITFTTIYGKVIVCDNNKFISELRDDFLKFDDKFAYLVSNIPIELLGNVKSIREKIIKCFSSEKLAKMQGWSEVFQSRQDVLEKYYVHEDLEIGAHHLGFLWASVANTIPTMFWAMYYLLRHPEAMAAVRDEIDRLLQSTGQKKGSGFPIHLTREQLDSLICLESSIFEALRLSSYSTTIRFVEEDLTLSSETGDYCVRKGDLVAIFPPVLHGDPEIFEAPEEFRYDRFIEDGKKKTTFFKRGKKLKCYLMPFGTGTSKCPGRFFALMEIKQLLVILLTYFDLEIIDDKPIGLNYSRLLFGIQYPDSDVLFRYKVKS", "assay": "Binding affinity to recombinant human CYP7B1 assessed as substrate-type binding by measuring dissociation constant by spectrophotometric titration method", "type": "ADME"}, "MDA-MB-231 [5]": {"system": "MDA-MB-231", "assay": "Antiproliferative activity against estrogen-independent human MDA-MB-231 cells assessed as inhibition of cell growth by MTT assay", "type": "functional, cell-based"}, "MCF7 [6]": {"system": "MCF7", "assay": "Synergistic antiproliferative activity against human MCF7 cells assessed as reduction in cell viability at 2.4 uM incubated for 72 hrs in presence of AKT inhibitor IV 6-(2-benzothiazolyl)-1-ethyl-2-[2-(methylphenylamino)ethenyl]-3-phenyl-1H-benzimidazolium mono iodide by MTT assay", "type": "functional, cell-based"}, "MCF7 [7]": {"system": "MCF7", "assay": "Downregulation of PCNA protein level in human MCF7 cells at 15 uM measured after 48 hrs by immunoblot analysis", "type": "functional, cell-based"}, "Aromatase": {"biological_target": "T3, Aromatase (Homo sapiens, UniProt P11511)", "T3 sequence (P11511 whole entry)": "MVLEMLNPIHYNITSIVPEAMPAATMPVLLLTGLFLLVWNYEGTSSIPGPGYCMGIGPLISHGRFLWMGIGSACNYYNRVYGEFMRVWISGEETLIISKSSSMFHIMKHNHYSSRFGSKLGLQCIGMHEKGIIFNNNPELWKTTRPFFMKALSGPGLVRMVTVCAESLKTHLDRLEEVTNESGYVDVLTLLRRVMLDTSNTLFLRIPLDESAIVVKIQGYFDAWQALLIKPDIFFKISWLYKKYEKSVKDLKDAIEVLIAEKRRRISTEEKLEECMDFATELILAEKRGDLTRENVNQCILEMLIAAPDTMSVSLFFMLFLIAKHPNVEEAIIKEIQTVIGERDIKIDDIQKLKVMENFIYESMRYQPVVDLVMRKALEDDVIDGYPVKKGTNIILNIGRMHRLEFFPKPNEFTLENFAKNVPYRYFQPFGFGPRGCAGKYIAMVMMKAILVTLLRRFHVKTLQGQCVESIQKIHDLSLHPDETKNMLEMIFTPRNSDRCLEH", "assay": "Binding affinity to recombinant human CYP19A1 by spectrophotometric titration method", "type": "ADME", "conditions": "recombinant enzyme"}, "Cytochrome P450 7B1 [8]": {"biological_target": "T2, Cytochrome P450 7B1", "assay": "Binding affinity to recombinant human CYP7B1 by spectrophotometric titration method", "type": "ADME", "conditions": "recombinant enzyme"}, "MCF7 [9]": {"system": "MCF7", "assay": "Downregulation of CDK4 protein expression in human MCF7 cells at 1.7 to 15 uM measured after 48 hrs by immunoblot analysis", "type": "functional, cell-based", "conditions": "dose 1.7-15 µM"}, "MCF7 [10]": {"system": "MCF7", "assay": "Anti-estrogenic activity in human MCF7 cells assessed as reduction in GREB1 protein expression at 1.7 to 15 uM measured after 48 hrs by immunoblot analysis", "type": "functional, cell-based", "conditions": "dose 1.7-15 µM"}, "MCF7 [11]": {"system": "MCF7", "assay": "Induction of cell death in human MCF7 cells assessed as accumulation of cleaved PARP level at 1.7 to 15 uM measured after 48 hrs by immunoblot analysis", "type": "functional, cell-based", "conditions": "dose 1.7-15 µM"}, "[12]": {"assay": "Selectivity index, ratio of IC50 for human THP-1 cells to IC50 for human MCF7 cells"}, "MCF7 [13]": {"system": "MCF7", "assay": "Anti-estrogenic activity in human MCF7 cells assessed as reduction in ERalpha protein expression at 1.7 to 15 uM measured after 48 hrs by immunoblot analysis", "type": "functional, cell-based", "conditions": "dose 1.7-15 µM"}, "MCF7 [14]": {"system": "MCF7", "assay": "Effect on E-cadherin protein expression in human MCF7 cells at 1.7 to 15 uM measured after 48 hrs by immunoblot analysis", "type": "functional, cell-based", "conditions": "dose 1.7-15 µM"}, "[15]": {"assay": "Cytotoxicity against human THP-1 cells assessed as inhibition of cell growth incubated for 72 hrs by MTT assay", "type": "toxicity, cell-based"}, "MCF7 [16]": {"system": "MCF7", "assay": "Anti-estrogenic activity in human MCF7 cells transfected with luciferase gene under control of estrogen response elements cotransfected with beta-galactosidase assessed as reduction in 17beta-estradiol induced ERalpha protein expression by measuring reduction in luciferase activity measured after 24 hrs", "type": "functional, cell-based", "conditions": "dose 1.7-20 µM"}, "MCF7 [17]": {"system": "MCF7", "assay": "Downregulation of cyclin D1 protein expression in human MCF7 cells at 1.7 to 15 uM measured after 48 hrs by immunoblot analysis", "type": "functional, cell-based", "conditions": "dose 1.7-15 µM"}, "MCF7 [18]": {"system": "MCF7", "assay": "Effect on activated AKT protein level in human MCF7 cells at 1.7 to 15 uM measured after 48 hrs by immunoblot analysis", "type": "functional, cell-based", "conditions": "dose 1.7-15 µM"}, "Cytochrome P450 7A1 [19]": {"biological_target": "T1, Cytochrome P450 7A1", "assay": "Binding affinity to recombinant human CYP7A1 by spectrophotometric titration method", "type": "ADME", "conditions": "recombinant enzyme"}, "[20]": {"biological_target": "T4, Steroid 17-alpha-hydroxylase/17,20 lyase (Homo sapiens, UniProt P05093)", "T4 sequence (P05093 whole entry)": "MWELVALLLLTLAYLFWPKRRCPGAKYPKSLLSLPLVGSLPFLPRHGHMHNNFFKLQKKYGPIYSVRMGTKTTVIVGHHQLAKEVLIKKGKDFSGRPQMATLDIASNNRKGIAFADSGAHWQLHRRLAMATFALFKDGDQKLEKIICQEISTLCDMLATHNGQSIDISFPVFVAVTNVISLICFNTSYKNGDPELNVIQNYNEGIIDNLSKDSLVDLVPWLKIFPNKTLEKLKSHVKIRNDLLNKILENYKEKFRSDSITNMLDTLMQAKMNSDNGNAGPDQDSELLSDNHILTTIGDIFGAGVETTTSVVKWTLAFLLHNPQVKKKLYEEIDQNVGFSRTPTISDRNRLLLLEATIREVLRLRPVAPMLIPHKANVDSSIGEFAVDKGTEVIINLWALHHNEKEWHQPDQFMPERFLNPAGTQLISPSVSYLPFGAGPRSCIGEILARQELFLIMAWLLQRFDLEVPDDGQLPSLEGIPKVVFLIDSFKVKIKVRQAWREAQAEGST", "assay": "Binding affinity to recombinant human CYP17A1 by spectrophotometric titration method", "type": "ADME", "conditions": "recombinant enzyme"}, "Steroid 21-hydroxylase": {"biological_target": "T5, Steroid 21-hydroxylase (Homo sapiens, UniProt P08686)", "T5 sequence (P08686 whole entry)": "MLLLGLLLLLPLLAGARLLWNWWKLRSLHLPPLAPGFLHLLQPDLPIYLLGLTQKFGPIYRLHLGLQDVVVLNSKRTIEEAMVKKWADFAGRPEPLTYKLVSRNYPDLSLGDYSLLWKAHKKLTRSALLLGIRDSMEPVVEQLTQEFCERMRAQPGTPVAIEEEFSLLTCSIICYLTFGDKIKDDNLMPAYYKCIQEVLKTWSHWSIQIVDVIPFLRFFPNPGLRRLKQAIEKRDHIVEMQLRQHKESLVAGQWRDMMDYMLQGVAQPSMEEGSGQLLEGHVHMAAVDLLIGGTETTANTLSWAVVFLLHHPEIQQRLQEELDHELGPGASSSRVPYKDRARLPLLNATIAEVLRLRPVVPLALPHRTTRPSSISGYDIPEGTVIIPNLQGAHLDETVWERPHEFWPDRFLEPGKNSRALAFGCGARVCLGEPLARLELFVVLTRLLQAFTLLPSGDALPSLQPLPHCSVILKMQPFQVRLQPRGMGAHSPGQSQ", "assay": "Binding affinity to recombinant human CYP21A2 by spectrophotometric titration method", "type": "ADME", "conditions": "recombinant enzyme"}, "MCF7 [21]": {"system": "MCF7", "assay": "Induction of cell death in human MCF7 cells assessed as reduction in Bcl-2 protein expression measured after 48 hrs by immunoblot analysis", "type": "functional, cell-based", "conditions": "dose 1.7-15 µM"}, "MCF7 [22]": {"system": "MCF7", "assay": "Antiproliferative activity against estrogen-responsive human MCF7 cells assessed as inhibition of cell growth by MTT assay", "type": "functional, cell-based"}},
  "note": "The source made the active and inactive calls. No cut-off for these calls is given here.",
  "data": [
    {"smiles": "CC(C)(C)NP(=O)(NC(C)(C)C)c1nncc2c1CC1CC[C@H]3[C@@H]4CC[C@H](O)[C@@]4(C)CC[C@@H]3[C@@]1(C)C2", "note": "(stereo partly specified)", "values": [
      {"measurement": "Kd", "setting": "Cytochrome P450 7A1 [1]", "result": 2.1, "unit": "µM"},
      {"measurement": "IC50", "setting": "MDA-MB-231 [2]", "result": "> 25", "unit": "µM"},
      {"measurement": "IC50", "setting": "MCF7 [3]", "result": 22.1, "unit": "µM"},
      {"measurement": "Kd", "setting": "Cytochrome P450 7B1 [4]", "result": 1.7, "unit": "µM"}
    ]},
    {"smiles": "COc1ccc(NC(=O)c2nncc3c2[C@@]2(C)CC[C@H]4[C@@H](CC=C5C[C@@H](OC(C)=O)CC[C@@]54C)[C@@H]2C3)cc1", "values": [
      {"measurement": "IC50", "setting": "MDA-MB-231 [5]", "result": 12.5, "unit": "µM"}
    ]},
    {"smiles": "C[C@]12CCC(=O)C=C1CC[C@@H]1[C@@H]2CC[C@]2(C)c3c(cnnc3P(=O)(Nc3ccccc3)Nc3ccccc3)C[C@@H]12", "values": [
      {"measurement": "Activity", "setting": "MCF7 [6]", "result": "Active"},
      {"measurement": "Activity", "setting": "MCF7 [7]", "result": "Active"},
      {"measurement": "Activity", "setting": "Aromatase", "result": "Not Active"},
      {"measurement": "Activity", "setting": "Cytochrome P450 7B1 [8]", "result": "Not Active"},
      {"measurement": "Activity", "setting": "MCF7 [9]", "result": "Active"},
      {"measurement": "Activity", "setting": "MCF7 [10]", "result": "Active"},
      {"measurement": "Activity", "setting": "MCF7 [11]", "result": "Active"},
      {"measurement": "Ratio IC50", "setting": "[12]", "result": ">8.5"},
      {"measurement": "Activity", "setting": "MCF7 [13]", "result": "Active"},
      {"measurement": "Activity", "setting": "MCF7 [14]", "result": "inactive"},
      {"measurement": "IC50 at 72 h", "setting": "[15]", "result": "> 50", "unit": "µM"},
      {"measurement": "Activity", "setting": "MCF7 [16]", "result": "Dose-Dependent Effect"},
      {"measurement": "Activity", "setting": "MCF7 [17]", "result": "Active"},
      {"measurement": "IC50", "setting": "MDA-MB-231 [2]", "result": 22, "unit": "µM"},
      {"measurement": "IC50", "setting": "MCF7 [3]", "result": 5.9, "unit": "µM"},
      {"measurement": "Activity", "setting": "MCF7 [18]", "result": "inactive"},
      {"measurement": "Activity", "setting": "Cytochrome P450 7A1 [19]", "result": "Not Active"},
      {"measurement": "Activity", "setting": "[20]", "result": "Not Active"},
      {"measurement": "Activity", "setting": "Steroid 21-hydroxylase", "result": "Not Active"},
      {"measurement": "Activity", "setting": "MCF7 [21]", "result": "Dose-Dependent Effect"}
    ]},
    {"smiles": "CC(=O)O[C@H]1CC[C@@]2(C)C(=CC[C@@H]3[C@@H]2CC[C@]2(C)c4c(cnnc4C(=O)Nc4ccc(C(F)(F)F)cc4)C[C@@H]32)C1", "values": [
      {"measurement": "IC50", "setting": "MCF7 [22]", "result": 4.9, "unit": "µM"}
    ]}
  ]
}
